Data reported in patent publication US20240208901A1, “Deuterated 3,3'-Diselenodipropionic Acid (DSePA) and Its Use as an Anticancer or Radioprotective Agent” (Secretary, Department of Atomic Energy, priority 2022, published 2024).

Tests used:
[1] = test system: WI-38 cells; assay: Clonogenic assay in WI-38 cells; type: cell-based, human; conditions: Homo sapiens, 168 h, seven days treatment, read-out: IC50 to inhibit growth (survival fraction)
Procedure: Further, clonogenic assay is considered as the gold standard method for evaluating the anticancer activity of any compound and is also a good indicator of the in vivo efficacy of any anticancer compound. Therefore, the therapeutic index of DSePA and D-DSePA in A549/WI-38 cells was also validated by employing the clonogenic assay. For this, A549/WI-38 cells were treated with the varying concentrations (0.1-2 μM)/(1-500 μM) of DSePA/D-DSePA for seven days and the survival fraction was calculated by counting the number of surviving clones (FIG. 11A). The plot of survival fraction verses the concentration of DScPA/D-DSCPA was used to estimate the IC50 of above compounds to inhibit the growth of A549/WI-38 cells. […] This clearly confirmed that deuteration of DScPA reduced its toxicity in normal cells without compromising its efficacy in cancer cells. […]
(§1) Clonogenic assay—Clonogenic assay was performed according to the method reported previously. […] After 7 days, colonies were fixed with absolute methanol for 5 min, stained with 0.5% crystal violet for 5 min, washed with distilled water to remove excess stain and counted manually under a stereo microscope. […] The plating efficiency and the survival fraction under irradiated and drug treated conditions were calculated using following formulae: […]
(§2) The plating efficiency of A549 and WI38 cells was calculated by seeding ˜300 and ˜500 cells respectively. […]

[2] = test system: WI-38 cells; assay: Clonogenic assay, radioprotection of WI-38 cells against γ-irradiation; type: cell-based, human; conditions: WI-38 cells pretreated 24 h with 0.5 μM drug, γ-irradiation 2-12 Gy, clonogenic assay
Procedure: Further, clonogenic assay is considered as the gold standard method for evaluating the anticancer activity of any compound and is also a good indicator of the in vivo efficacy of any anticancer compound. Therefore, the therapeutic index of DSePA and D-DSePA in A549/WI-38 cells was also validated by employing the clonogenic assay. For this, A549/WI-38 cells were treated with the varying concentrations (0.1-2 μM)/(1-500 μM) of DSePA/D-DSePA for seven days and the survival fraction was calculated by counting the number of surviving clones (FIG. 11A). The plot of survival fraction verses the concentration of DScPA/D-DSCPA was used to estimate the IC50 of above compounds to inhibit the growth of A549/WI-38 cells. […] This clearly confirmed that deuteration of DScPA reduced its toxicity in normal cells without compromising its efficacy in cancer cells. Since anticancer agents are intended to be used in combination with radiation, DSePA/D-DSePA at a treatment concentration of 0.5 μM (dose close to IC50 as determined by clonogenic assay) was combined with varying absorbed doses (2-8 Gy) of γ-irradiation and the effect of combinatorial treatment on the viability of A549 cells was determined by clonogenic assay (FIG. 12A & 12B). For this, A549 cells exposed to the varying absorbed doses (2-8 Gy) of γ-radiation were immediately treated with DScPA/D-DScPA and cultured for seven days prior to clonogenic assay. […] The D10 value of the combinatorial treatment involving DScPA estimated was 4.5 Gy (FIG. 12B). […]
as §1, §2

## O=C(O)CC[Se][Se]CCC(=O)O [DSePA, 3,3′-diselenodipropionic acid]
[1]
  IC50: 17.9 ± 0.01 µM
[2]
  dose modification factor (DMF, D10 of radiation plus drug / D10 of radiation alone): 1.12±0.03
